Assay results as given in patent US9321767B2, “Azabenzimidazoles as respiratory syncytial virus antiviral agents” (JANSSEN SCIENCES IRELAND UC, priority 2010, dated 2016).

Key:
rgRSV224 virus = test: microbe, parasite or virus in culture; format: cell-based, respiratory syncytial virus (RSV); conditions: human respiratory syncytial virus, HeLa, 72 h, read-out: RSV-wt_EC50
Method: (§1) Black 96-well clear-bottom microtiter plates (Corning, Amsterdam, The Netherlands) were filled in duplicate using a customized robot system with serial 4-fold dilutions of compound in a final volume of 50 μl culture medium [RPMI medium without phenol red, 10% FBS, 0.04% gentamycin (50 mg/mL) and 0.5% DMSO]. Then, 100 μl of a HeLa cell suspension (5×10^4 cells/mL) in culture medium was added to each well followed by the addition of 50 μl rgRSV224 (MOI=0.02) virus in culture medium using a multidrop dispenser (Thermo Scientific, Erembodegem, Belgium). rgRSV224 virus is an engineered virus that includes an additional GFP gene (Hallak et al, 2000) and was in-licensed from the NIH (Bethesda, Md., USA). Medium, virus- and mock-infected controls were included in each test. Cells were incubated at 37° C. in a 5% CO2 atmosphere. Three days post-virus exposure, viral replication was quantified by measuring GFP expression in the cells by a MSM laser microscope (Tibotec, Beerse, Belgium). The EC50 was defined as the 50% inhibitory concentration for GFP expression. In parallel, compounds were incubated for three days in a set of white 96-well microtitier plates (Corning) and the cytotoxicity of compounds in HeLa cells was determined by measuring the ATP content of the cells using the ATPlite kit (PerkinElmer, Zaventem, Belgium) according to the manufacturer's instructions. The CC50 was defined as the 50% concentration for cytotoxicity.

HeLa cells = test: Cytotoxicity in HeLa cells, ATP content (ATPlite kit); format: cell-based; conditions: HeLa cells, three days incubation, ATP content
Method: as §1

Row | Structure (SMILES) | EC50 (rgRSV224 virus) [nM] | TOX-HELA_EC50 (HeLa cells) [µM]
1 | CC(C)CCn1c(Cn2c(=O)n(C(C)C)c3ccnc(C#N)c32)nc2cccnc21 [Compound 29, 3-((3-isopentyl-3H-imidazo[4,5-b]pyridin-2-yl)methyl)-1-isopropyl-2-oxo-2,3-dihydro-1H-imidazo[4,5-c]pyridine-4-carbonitrile] | > 98400 | >98.3603
2 | CC(C)CCn1c(Cn2c(=O)n(C3CC3)c3ccccc32)nc2cnccc21 [Compound 31] | 5.4 | >9.836
3 | O=c1n(Cc2nc3cc(F)cnc3n2CCCCO)c2cnccc2n1C1CC1 [Compound 22, 1-cyclopropyl-3-((6-fluoro-3-(4-hydroxybutyl)-3H-imidazo[4,5-b]pyridin-2-yl)methyl)-1H-imidazo[4,5-c]pyridin-2(3H)-one] | 403 | >9.836
